“And” between values parts separate entries of the source, which are not always exact repeats. Equal entries are not always repeated. “Also recorded” adds a separate entry of the source.
System: scopolamine-treated cynomolgus monkeys
Assay: Scopolamine-induced impairment of vsPAL task performance, treatment + scopolamine
Assay type: in vivo, cynomolgus monkeys (Macaca Fasicularis)
Conditions: for Cohen's d / effect r: eventual accuracy, 4-stimuli; for mean (cohen's d calculations): eventual correct; for % Completion / Average Response Latency (Avg Rsp Lat) / Eventual Correct, 2 Stimuli / Eventual Correct, 3 Stimuli / Eventual Correct, 4 Stimuli / Eventual Correct, Overall Mean % Correct / Initial Correct, 3 Stimuli / Initial Correct, 4 Stimuli / Initial Correct, Overall Mean % Correct / Initial correct, 2 Stimuli: im + Scopolamine
[1] = 0.03 mg/kg + scopolamine vs vehicle+scopolamine
[2] = 0.1 mg/kg + scopolamine vs vehicle+scopolamine
[3] = 0.3 mg/kg + scopolamine vs vehicle+scopolamine
[4] = BMS-933043 0.03 mg/kg, group MEAN
[5] = BMS-933043 0.03 mg/kg, individual animals, 0.03 mg/kg
[6] = BMS-933043 0.1 mg/kg, group MEAN
[7] = BMS-933043 0.1 mg/kg, individual animals, 0.1 mg/kg
[8] = BMS-933043 0.3 mg/kg, group MEAN

c1cn(-c2cc(NC3=NC[C@@]4(CN5CCC4CC5)O3)ncn2)cn1 [BMS-933043, (2R)-N-(6-(1H-imidazol-1-yl)-4-pyrimidinyl)-4'H-spiro[4-azabicyclo[2.2.2]octane-2,5'-[1, 3]oxazol]-2'-amine]
Cohen's d [1]: 0.64 | effect r [1]: 0.306 | Cohen's d (0.03 mg/kg + scopolamine vs vehicle+scopolamine, listed as 933043): 0.643 | Cohen's d [2]: 0.73 | effect r [2]: 0.343 | Cohen's d (0.1 mg/kg + scopolamine vs vehicle+scopolamine, listed as 933043): 0.7311 | Cohen's d [3]: 1.2 | effect r [3]: 0.51 | effect on scopolamine-induced impairment of eventual accuracy (0.03, 0.1 and 0.3 mg/kg i.m., 4-stimuli condition): significantly ameliorated; also recorded: significantly reversed | mean (cohen's d calculations) (0.03 mpk + scop, 4-stimuli condition): 81.7 | mean (cohen's d calculations) (0.1 mpk + scop, 4-stimuli condition): 81.4 | mean (cohen's d calculations) (0.3 mpk + scop, 4-stimuli condition): 90.0 | % Completion [4]: 80.9% | Average Response Latency (Avg Rsp Lat) [4]: 2008.1 ms | Eventual Correct, 2 Stimuli [4]: 100.0% | Eventual Correct, 3 Stimuli [4]: 88.6% | Eventual Correct, 4 Stimuli [4]: 81.7% | Eventual Correct, Overall Mean % Correct [4]: 89.8% | Initial Correct, 3 Stimuli [4]: 58.6% | Initial Correct, 4 Stimuli [4]: 38.3% | Initial Correct, Overall Mean % Correct [4]: 63.6% | Initial correct, 2 Stimuli [4]: 90.0% | Eventual Correct, 2 Stimuli (BMS-933043 0.03 mg/kg, individual animals): 100.0% | % Completion [5]: 81.8% and 100.0% and 81.3% and 32.1% and 72.4% and 98.5% | Average Response Latency (Avg Rsp Lat) [5]: 2181.5 ms and 1558.2 ms and 1198.4 ms and 2787.4 ms and 1505.0 ms and 2151.4 ms and 2675.1 ms | Eventual Correct, 3 Stimuli [5]: 90.0% and 100.0% and 50.0% | Eventual Correct, 4 Stimuli [5]: 100.0% and 90.0% and 40.0% and 80.0% | Eventual Correct, Overall Mean % Correct [5]: 96.7% and 76.7% and 100.0% and 75.0% and 90.0% and 93.3% | Initial Correct, 3 Stimuli [5]: 70.0% and 60.0% and 40.0% and 80.0% and 20.0% | Initial Correct, 4 Stimuli [5]: 40.0% and 10.0% and 80.0% and 20.0% | Initial Correct, Overall Mean % Correct [5]: 70.0% and 66.7% and 56.7% and 76.7% and 65.0% and 40.0% | Initial correct, 2 Stimuli [5]: 100.0% and 90.0% and 80.0% | % Completion [6]: 84.8% | Average Response Latency (Avg Rsp Lat) [6]: 1958.7 ms | Eventual Correct, 2 Stimuli [6]: 100.0% | Eventual Correct, 3 Stimuli [6]: 98.6% | Eventual Correct, 4 Stimuli [6]: 81.4% | Eventual Correct, Overall Mean % Correct [6]: 93.3% | Initial Correct, 3 Stimuli [6]: 75.7% | Initial Correct, 4 Stimuli [6]: 35.7% | Initial Correct, Overall Mean % Correct [6]: 66.7% | Initial correct, 2 Stimuli [6]: 88.6% | Eventual Correct, 2 Stimuli (BMS-933043 0.1 mg/kg, individual animals): 100.0% | % Completion [7]: 83.0% and 98.5% and 77.8% and 81.4% and 55.7% and 97.1% and 100.0% | Average Response Latency (Avg Rsp Lat) [7]: 1783.8 ms and 1549.9 ms and 1223.3 ms and 2854.5 ms and 1899.4 ms and 1717.2 ms and 2683.0 ms | Eventual Correct, 3 Stimuli [7]: 90.0% and 100.0% | Eventual Correct, 4 Stimuli [7]: 90.0% and 80.0% and 70.0% and 60.0% and 100.0% | Eventual Correct, Overall Mean % Correct [7]: 93.3% and 90.0% and 86.7% and 100.0% and 96.7% | Initial Correct, 3 Stimuli [7]: 80.0% and 60.0% and 70.0% and 90.0% and 100.0% | Initial Correct, 4 Stimuli [7]: 50.0% and 10.0% and 40.0% and 30.0% and 70.0% | Initial Correct, Overall Mean % Correct [7]: 76.7% and 53.3% and 66.7% and 90.0% and 60.0% | Initial correct, 2 Stimuli [7]: 100.0% and 90.0% and 80.0% | % Completion [8]: 86.7% | Average Response Latency (Avg Rsp Lat) [8]: 1774.3 ms | Eventual Correct, 2 Stimuli [8]: 100.0% | Eventual Correct, 3 Stimuli [8]: 94.3% | Eventual Correct, 4 Stimuli [8]: 90.0% | Eventual Correct, Overall Mean % Correct [8]: 94.3% | Initial Correct, 3 Stimuli [8]: 68.6% | Initial Correct, 4 Stimuli [8]: 45.0% | Initial Correct, Overall Mean % Correct [8]: 67.6% | Initial correct, 2 Stimuli [8]: 91.4% | Eventual Correct, 2 Stimuli (BMS-933043 0.3 mg/kg, individual animals): 100.0%

— article PMC5736175, “Nicotinic alpha 7 receptor agonists EVP-6124 and BMS-933043, attenuate scopolamine-induced deficits in visuo-spatial paired associates learning” (PLoS ONE, 2017)
